For data set [1], the system named is Vps15 LKO mice. Put plainly: Histological analyses of liver tissue (hematoxylin/eosin, Sirius Red) in treated control and Vps15 LKO mice. Format: in vivo. As to conditions: two weeks. An excerpt:
(§1) The Vsp15 conditional mutant mouse line was established at the MCI/ICS (Mouse Clinical Institute—Institute Clinique de la Souris, Illkirch, France) as described (Nemazanyy, I. et al. Defects of Vps15 in skeletal muscles lead to autophagic vacuolar myopathy and lysosomal disease. EMBO Mol. Med. (2013). Liver specific Vps15 knockout mouse line was generated as described (Nemazanyy I et al., Class III PI3K regulates organismal glucose homeostasis by providing negative feedback on hepatic insulin signalling. Nat Commun. 2015 Sep. 21; 6:8283.). Mice were housed in specific pathogen-free conditions. Male mice (5-8-week-old) were used for the experimentation. Mice were randomly allocated to experimental groups and at least three animals were used for each condition (as indicated in figure legends) to ensure statistics analyses. Animal numbers were chosen to reflect the expected magnitude of response that takes into account the variability observed in previous experiments. All animal studies were approved by the Direction Départementale des Services Vétérinaires, Prefecture de Police, Paris, France (authorization number 75-1313) and the ethical committee of Paris Descartes University (17-052).
(§2) All animals used in the study were fed ad libitum standard chow diet (Teklad global protein diet; 20% protein, 75% carbohydrate, 5% fat) and kept under 12 h/12 h (8 am/8 pm) light on/off cycle. Animals were sacrificed between 2-4 pm unless indicated. […] For 5-bromo-2′deoxyuridine (BrdU) incorporation, mice were treated with BrdU (3 mg/ml, Sigma-Aldrich) dissolved in drinking water for 3 days before sacrifice. […]. For immunohistochemical analysis liver tissue was fixed overnight in phosphate-buffered 10% formalin and embedded in paraffin. […] sections were cut and processed either for staining with eosin/hematoxylin, Sirius Red or for immunohistochemical analyses. Plasmatic TG, Billirubin, Hydroxybutyrate, AST and ALAT activities were measured enzymatically using Olympus AU 400 apparatus.
For immunohistochemical analysis, liver tissue was fixed overnight in phosphate-buffered 10% formalin and embedded in paraffin. 4 μm sections were cut and processed either for staining with eosin/hematoxylin or for immunohistochemical analyses. Post-staining analyses were performed on digitalized with the NanoZoomer S210 (Hamamatsu) liver tissue slices. Immunohistochemistry of liver tissue sections was performed using anti-p62 (Abnova), anti-TROMA-III-s (DSHB), anti-cytokeratin (AbCyst) or with anti-Lamp1 (Abcam) antibodies.

The test system of data set [2] is Vps15 LKO mice. Put plainly: Immunoblot analyses of total protein liver extracts (Lamp1, Lamp2, p62, LC3, FABP1) of treated mice. Format: in vivo. As to conditions: two weeks.
From the text: as §1, §2
To prepare protein extract for immunoblot analysis, liver tissue was homogenized in lysis buffer containing 20 mM Tris-HCl (pH 8.0), 5% glycerol, 138 mM NaCl, 2.7 mM KCl, 1% NP-40, 20 mM NaF, 5 mM EDTA, 1× protease inhibitors (Roche), 1× PhosphoStop Inhibitors (Roche). Homogenates were spun at 12000×g for 10 min at 4° C. Protein extracts were resolved by SDS-PAGE before transfer onto PVDF membrane followed by incubation with the primary antibodies and HRP-linked secondary antibodies. Immobilon Western Chemiluminescent HRP Substrate (Millipore) was used for the detection. The images were acquired using ChemiDocTouch Imaging System (BioRad) and the quantification performed using ImageJ software.

The subject of data set [3] is Vps15 LKO mice. Put plainly: Targeted metabolomics of acyl-carnitine fatty acid species in liver tissue of treated mice. Format: in vivo. As to conditions: two weeks.
From the text: as §1, §2
Targeted metabolomics analyses were performed on liver tissue extracts obtained with solution of 50% methanol, 30% ACN, and 20% water. The volume of extraction solution added was calculated from weight of powdered tissue (60 mg/ml). After addition of extraction solution, samples were vortexed for 5 min at 4° C., and then centrifuged at 16,000×g for 15 min at 4° C. The supernatants were collected and analysed by liquid chromatography-mass spectrometry using SeQuant ZIC-pHilic column (Merck) for the liquid chromatography separation. Mobile phase A consisted of 20 mM ammonium carbonate plus 0.1% ammonia hydroxide in water. Mobile phase B consisted of ACN. The flow rate was kept at […], and the gradient was 0 min, 80% of B; 30 min, 20% of B; 31 min, 80% of B; and 45 min, 80% of B. The mass spectrometer (QExactive Orbitrap, Thermo Fisher Scientific) was operated in a polarity switching mode and metabolites were identified using TraceFinder Software (Thermo Fisher Scientific). For analyses, metabolomics data were normalized using the median normalization method. MetaboAnalyst 4.0 software was used for heatmaps generation. The algorithm for heatmap clustering was based on the Pearson distance measure for similarity and the Ward linkage method for biotype clustering.

In another data set the test system is PPARα. Type of data set: in vivo. As to conditions: Vps15 LKO mice, two weeks.
Data set [4] has as its system Vps15 LKO mice. As to the kind of experiment: Plasma biochemical analyses (TG, ALAT, AST) and spleen weight to body weight ratio in treated mice. Type of data set: in vivo. Particulars: two weeks.
From the text: as §1, §2

Another data set relates to BA patients. Particulars: large clinical use during many years, no controlled studies; cited from earlier work.
[5] abbreviates: Vps15 LKO mice, drug incorporated in food.
[6] abbreviates: Vps15 LKO mice, drug incorporated in food, listed as BEZA.
[7] abbreviates: Vps15 LKO mice, once per day by oral gavage.
Where [8] appears, read: Vps15 LKO mice, once per day by oral gavage, listed as FENO.
Setting [9] is: control mice, fenofibrate incorporated in food.

“Also recorded” adds a separate entry of the source.

Experimental for PPARα: All animals used in the study were fed ad libitum standard chow diet (Teklad global protein diet; 20% protein, 75% carbohydrate, 5% fat) and kept under 12 h/12 h (8 am/8 pm) light on/off cycle. Animals were sacrificed between 2-4 pm unless indicated. […] Plasmatic TG, Billirubin, Hydroxybutyrate, AST and ALAT activities were measured enzymatically using Olympus AU 400 apparatus.
Total RNA was isolated from liver tissue using RNAeasy Lipid Tissue Mini Kit (Qiagen). Single-strand complementary DNA was synthesized from 1 μg of total RNA using 125 ng of random hexamer primers and SuperScript II (Life Technologies). RT-qPCR was performed on MX3005P instrument (Agilent) using a Brilliant III Ultra-Fast QPCR Master Mix (Agilent). The relative amounts of the mRNAs studied were determined by means of the 2^−ΔΔCT method, with pinin, S18, cyclophilin, eIF2α, HUS, Ubiquitin as reference genes for studies in mice and pinin for studies in human patient samples.

For `CC(C)(Oc1ccc(CCNC(=O)c2ccc(Cl)cc2)cc1)C(=O)O` [bezafibrate, 2-(4-(2-((4-chlorobenzoyl)amino)ethyl)phenoxy)-2-methylpropanoic acid], the “hepatocyte volume (histology)” value with Vps15 LKO mice [1] (setting [5]) is given as “reduce hepatocyte volume”. Also, in the data set on Vps15 LKO mice [1] (setting [6]), the “hepatocyte vacuolation (hematoxylin/eosin)” value is on record as “sufficient to decrease hepatocyte vacuolation; also recorded: rescues hepatocyte vacuolation” and the “portal area organization / architecture of intrahepatic biliary system (histology)” value was “improve the portal area organization; also recorded: ameliorates architecture of intrahepatic biliary system”. Moreover, in the data set on Vps15 LKO mice [2] (setting [5]), the “LC3 lipidation (LC3-II form) in liver (immunoblot)” value (“LC3 lipidation (LC3-II form)” below) is “promoted LC3-lipidation”; the “accumulation of Lamp proteins (Lamp1, Lamp2) in liver (immunoblot)” value (shortened to “accumulation of Lamp proteins”) is “reduced”; the “autophagic clearance in liver” value was “promoted autophagic clearance”; the “p62 protein levels in liver (immunoblot)” value was “reduction of p62 accumulation”. Moreover, in the data set on Vps15 LKO mice [2] (setting [5]), the “protein expression of PPARα target Fabp1 in liver (immunoblot)” value is “equally effective in restoring”. In the data set on Vps15 LKO mice [2] (setting [6]), the “LC3 lipidation (LC3-II form)” value was “increased lipidation of LC3”; the “accumulation of Lamp proteins” value is “decreased Lamp1 and p62 protein levels”; the “p62 protein levels in liver (immunoblot)” value was “decreased Lamp1 and p62 protein levels”. Also, in the data set with Vps15 LKO mice [3] (drug incorporated in food), the “fatty acid oxidation in liver (metabolomics)” value (“fatty acid oxidation in liver” for short) was “marked restoration of fatty acid oxidation”, the “levels of long-chain fatty acid carnitines in liver” value is reported as “decreased levels of long-chain fatty acid carnitines” and the “levels of short-chain fatty acid carnitines in liver” value is “increased levels of short-chain fatty acid carnitines”. Besides, the “fatty acid oxidation in liver” value with Vps15 LKO mice [3] (drug incorporated in food, listed as BEZA) is recorded as “sufficient to restore the metabolic activity such as fatty-acid oxidation”. In the data set with PPARα (drug incorporated in food (fenofibrate 200 mg/kg or bezafibrate 0.5%)), the “PPARα transcriptional activity in liver (transcript levels of PPARα target genes)” value was “equally efficient in restoring PPARα transcriptional activity; also recorded: restoration of PPARα function”. The “liver inflammation (transcript levels of TNF1α, IL1β, F4/80)” value with PPARα (drug incorporated in food) is given as “effective in reducing the inflammation”. In addition, in the data set on Vps15 LKO mice [4] (setting [5]), the “liver damage: activity of transaminases (ALAT, AST) in plasma” value was “fenofibrate, independently of mode of administration, was more effective in lowering liver damage compared to bezafibrate treatment”; the “spleen hypertrophy (ratio of spleen weight to body weight)” value was “decreasing spleen hypertrophy”; the “triglyceride (TG) levels in plasma” value is “effective in lowering TG levels”.
For the compound `CC(C)OC(=O)C(C)(C)Oc1ccc(C(=O)c2ccc(Cl)cc2)cc1` [fenofibrate, 2-{4-[(4-chlorophenyl)carbonyl]phenoxy}-2-méthylpropanoatede propan-2-yle], in the data set on Vps15 LKO mice [1] (setting [5]), the “hepatocyte vacuolation (hematoxylin/eosin)” value is “significantly decrease hepatocyte vacuolation; also recorded: rescues hepatocyte vacuolation”; the “hepatocyte volume (histology)” value was “reduce hepatocyte volume”; the “inflammatory cell infiltration in liver (histology)” value was “reduce hepatocyte volume and inflammatory cell infiltration”; the “liver fibrosis / collagen deposition (quantification of Sirius Red staining)” value is “lower; also recorded: decreased”. The “portal area organization / architecture of intrahepatic biliary system (histology)” value in the data set on Vps15 LKO mice [1] (setting [5]) is listed as “effective in improving the portal area organization; also recorded: ameliorates architecture of biliary system”. Moreover, in the data set on Vps15 LKO mice [1] (setting [7]), the “hepatocyte volume (histology)” value is “reduce hepatocyte volume”. In the data set with Vps15 LKO mice [1] (setting [8]), the “hepatocyte vacuolation (hematoxylin/eosin)” value was “sufficient to decrease hepatocyte vacuolation; also recorded: rescues hepatocyte vacuolation” and the “portal area organization / architecture of intrahepatic biliary system (histology)” value was “improve the portal area organization; also recorded: ameliorates architecture of intrahepatic biliary system”. The “hepatocyte hypertrophy (histology)” value in the data set on Vps15 LKO mice [1] (setting [9]) is listed as “resulted in hepatocyte hypertrophy”. In the data set with Vps15 LKO mice [2] (setting [5]), the “LC3 lipidation (LC3-II form)” value was “induced an important lipidation of LC3 protein; also recorded: promoted LC3-lipidation”; the “accumulation of Lamp proteins” value is “significantly ameliorated; also recorded: significantly reverted”; the “autophagic clearance in liver” value is reported as “promotes autophagic clearance”; the “p62 protein levels in liver (immunoblot)” value is “significantly ameliorated; also recorded: decreased levels of p62 protein”. Also, in the data set with Vps15 LKO mice [2] (setting [7]), the “LC3 lipidation (LC3-II form)” value is recorded as “promoted LC3-lipidation”, the “accumulation of Lamp1 protein in liver (immunoblot)” value is listed as “reduced”, the “autophagic clearance in liver” value is recorded as “promoted autophagic clearance” and the “p62 protein levels in liver (immunoblot)” value is “reduction of p62 accumulation”. Moreover, in the data set on Vps15 LKO mice [2] (setting [7]), the “protein expression of PPARα target Fabp1 in liver (immunoblot)” value is given as “equally effective in restoring”. In the data set on Vps15 LKO mice [2] (setting [8]), the “LC3 lipidation (LC3-II form)” value is “increased lipidation of LC3”; the “accumulation of Lamp1 protein in liver (immunoblot)” value is “decreased Lamp1 and p62 protein levels”; the “p62 protein levels in liver (immunoblot)” value was “decreased Lamp1 and p62 protein levels”. Besides, the “LC3 lipidation (LC3-II form)” value in the data set with Vps15 LKO mice [2] (setting [9]) is given as “induced an important lipidation of LC3 protein; also recorded: promoted LC3-lipidation”. Further, in the data set with Vps15 LKO mice [3] (once per day by oral gavage), the “fatty acid oxidation in liver” value is “marked restoration of fatty acid oxidation”, the “levels of long-chain fatty acid carnitines in liver” value is listed as “decreased levels of long-chain fatty acid carnitines” and the “levels of short-chain fatty acid carnitines in liver” value is recorded as “increased levels of short-chain fatty acid carnitines”. For the same compound, in the data set on Vps15 LKO mice [3] (once per day by oral gavage, listed as FENO), the “fatty acid oxidation in liver” value is “sufficient to restore the metabolic activity such as fatty-acid oxidation”. In addition, in the data set with Vps15 LKO mice [4] (setting [5]), the “liver damage: activity of transaminases (ALAT, AST) in plasma” value is given as “significantly decreased activity of transaminases; also recorded: more effective in lowering liver damage compared to bezafibrate; also recorded: significantly ameliorates liver damage” and the “triglyceride (TG) levels in plasma” value was “resulted in their normalization; also recorded: effective in lowering TG levels; also recorded: beneficial effect in lowering plasmatic triglycerides”. Also, the “triglyceride (TG) levels in plasma” value in the data set on Vps15 LKO mice [4] (setting [7]) was “effective in lowering TG levels”. In addition, the “triglyceride levels in plasma” value in the data set on Vps15 LKO mice [4] (setting [9]) was “effective in lowering triglyceride levels”.
With desoxycholic acid [UDCA], the “prognosis of patients (% of liver transplantation or survival)” value in the data set on BA patients is listed as “provided no evidence that it might positively affect prognosis of the patients”.

(Values after patent US12377066B2, “Treatment of diseases associated with biliary system destruction” (Assistance Publique-Hopitaux de Paris, priority 2018, dated 2025).)
